These results are taken from patent US20230357240A1, “NOVEL N-HETEROCYCLIC BET BROMODOMAIN INHIBITOR, AND PREPARATION METHOD THEREOF AND MEDICAL USE THEREOF” (Chengdu Easton Biopharmaceuticals Co., Ltd., priority 2020, published 2023).

In one data set the test system is MV4-11 cell. Put plainly: MV4-11 cell proliferation experiment (CCK-8 cell viability). In kind it is cell-based. As to conditions: Homo sapiens, MV4-11 cells, 72-hour culture. On the procedure:
EXAMPLE 9 Cell Experiment (MV4-11 Cell Proliferation Experiment)
Determination of Cell Viability with CCK-8 Reagent
(1) MV4-11 cell suspension was pipetted from a culture flask into a 15 mL centrifuge tube, and the cell suspension was centrifuged at 1000 rpm for 4 minutes.
(2) A supernatant in the centrifuge tube was discarded, and an appropriate amount of fresh complete medium (IMDM+10% FBS+1% P/S) was added to resuspend the cells. 20 μL of cell suspension was collected, 20 μL of trypan blue was added, and CounterStar was used for counting.
(3) A required cell suspension volume and complete medium volume were calculated according to viable cell density and the required number of plated cells. MV4-11 cells were plated at a density of 1*10^4 cells/well in 100 μL/well.
(4) 100 μL of the above cell suspension was pipetted into a 96-well plate by using an electric pipette. 150 μL of complete medium was added to blank control wells. PBS was added to peripheral wells of the 96-well plate, to avoid liquid evaporation. The 96-well plate was cultured overnight in an incubator.
Day 2: Compound Preparation:
(1) The compound of the present application dissolved in DMSO and the positive control substance ABBV-744 were fetched, and subjected to serial dilution (dilution in column A, column B, . . . , column J sequentially from left to right in a 96-well PCR plate).
An initial concentration of the solution in column A is 10 mM;
Column B: 2 μL of the solution in column A was diluted with 8 μL of DMSO to obtain a final concentration of 2000 μM;
Column C: 2 μL of the solution in column B was diluted with 8 μL of DMSO to obtain a final concentration of 400 μM;
Column D: 2 μL of the solution in column C was diluted with 8 μL of DMSO to obtain a final concentration of 80 μM;
Column E: 2 μL of the solution in column D was diluted with 8 μL of DMSO to obtain a final concentration of 16 μM;
Column F: 2 μL of the solution in column E was diluted with 8 μL of DMSO to obtain a final concentration of 3.2 μM;
Column G: 2 μL of the solution in column F was diluted with 8 μL of DMSO to obtain a final concentration of 0.64 μM;
Column H: 2 μL of the solution in column G was diluted with 8 μL of DMSO to obtain a final concentration of 0.128 μM;
Column I: 2 μL of the solution in column H was diluted with 8 μL of DMSO to obtain a final concentration of 0.0256 μM; and
Column J: 2 μL of the solution in column I was diluted with 8 μL of DMSO to obtain a final concentration of 0.00512 μM.
The suspension was centrifuged for 1 minute at 1000 rpm by using a low-speed centrifuge.
(2) 3×Compound Preparation: (Diluted in a 96-Well Cell Culture Plate)
3 μL of each of the solutions in columns B to J was pipetted into […] of complete medium by a 10 μL manual pipette to obtain 3×compound solutions with a final concentration of 30000, 6000, 1200, 240, 48, 9.6, 1.92, 0.384 and 0.0768 nM, respectively; and 3 μL of DMSO was pipetted into […] of complete medium as a control. The resulting 96-well cell culture plate was put on an oscillator to be oscillated at 500 rpm for 30 minutes.
(1) The prepared 3×compound solutions with the above concentrations were each pipetted by a manual pipette with its volume set to 50 μL into a corresponding well of the 96-well plate after overnight culture on the first day, and the total culture volume of each well was 150 μL. The final concentrations of the compounds in the 96-well plate were 10 μM, 2 μM, 400 nM, 80 nM, 16 nM, 3.2 nM, 0.64 nM, 0.128 nM and 0.0256 nM, respectively. The resulting 96-well plate was put on an oscillator to be oscillated at 500 rpm for 10 minutes.
(2) The 96-well plate as prepared was put in a CO2 incubator for 72-hour culture.
(1) CCK-8 test solution was pipetted into the 96-well cell culture plate in an amount of 15 μL/well by a pipette with a volume set to 15 μL.
(2) The 96-well plate was put in the CO2 incubator for 4-hour culture. […]

The subject of the next data set is MV4-11 xenograft tumor. Put plainly: In vivo efficacy test, MV4-11 xenograft tumor model in mice. As to conditions: NOD-SCID mice, 5 mg/kg qd gavage, 14 days. An excerpt:
EXAMPLE 11 In Vivo Efficacy Test of the Compound of the Present Application
Objective: To test the inhibitory effect of the test compound on the growth of xenograft tumor in nude mice with MV4-11 leukemia.
Method: NOD-SCID mice were subcutaneously inoculated with MV4-11 cells to establish an MV4-11 xenograft tumor model in mice. 16 days after inoculation (d16), average tumor volume was about 210 mm^3. According to the tumor volumes, the tumor-bearing mice were grouped in a random block method, with 6 mice in each group. The groups included a solvent control group, an ABBV-744 control group, and a test sample group, the dosage was 5 mg/kg mouse body weight, and the dose volume was 10 mL/kg mouse body weight, once a day. Each group was gavage administered for 14 consecutive days, and the solvent control group was gavage administered with a blank solvent (20% […] solution). Tumor volumes were measured twice weekly after administration of the test drug. The animals were euthanized after the test.

The next data set deals with T1, hERG (Homo sapiens, UniProt Q12809).
T1 construct: expressed in transfected cells; host or cells: HEK293 cells stably expressing hERG
T1 sequence (Q12809 whole entry): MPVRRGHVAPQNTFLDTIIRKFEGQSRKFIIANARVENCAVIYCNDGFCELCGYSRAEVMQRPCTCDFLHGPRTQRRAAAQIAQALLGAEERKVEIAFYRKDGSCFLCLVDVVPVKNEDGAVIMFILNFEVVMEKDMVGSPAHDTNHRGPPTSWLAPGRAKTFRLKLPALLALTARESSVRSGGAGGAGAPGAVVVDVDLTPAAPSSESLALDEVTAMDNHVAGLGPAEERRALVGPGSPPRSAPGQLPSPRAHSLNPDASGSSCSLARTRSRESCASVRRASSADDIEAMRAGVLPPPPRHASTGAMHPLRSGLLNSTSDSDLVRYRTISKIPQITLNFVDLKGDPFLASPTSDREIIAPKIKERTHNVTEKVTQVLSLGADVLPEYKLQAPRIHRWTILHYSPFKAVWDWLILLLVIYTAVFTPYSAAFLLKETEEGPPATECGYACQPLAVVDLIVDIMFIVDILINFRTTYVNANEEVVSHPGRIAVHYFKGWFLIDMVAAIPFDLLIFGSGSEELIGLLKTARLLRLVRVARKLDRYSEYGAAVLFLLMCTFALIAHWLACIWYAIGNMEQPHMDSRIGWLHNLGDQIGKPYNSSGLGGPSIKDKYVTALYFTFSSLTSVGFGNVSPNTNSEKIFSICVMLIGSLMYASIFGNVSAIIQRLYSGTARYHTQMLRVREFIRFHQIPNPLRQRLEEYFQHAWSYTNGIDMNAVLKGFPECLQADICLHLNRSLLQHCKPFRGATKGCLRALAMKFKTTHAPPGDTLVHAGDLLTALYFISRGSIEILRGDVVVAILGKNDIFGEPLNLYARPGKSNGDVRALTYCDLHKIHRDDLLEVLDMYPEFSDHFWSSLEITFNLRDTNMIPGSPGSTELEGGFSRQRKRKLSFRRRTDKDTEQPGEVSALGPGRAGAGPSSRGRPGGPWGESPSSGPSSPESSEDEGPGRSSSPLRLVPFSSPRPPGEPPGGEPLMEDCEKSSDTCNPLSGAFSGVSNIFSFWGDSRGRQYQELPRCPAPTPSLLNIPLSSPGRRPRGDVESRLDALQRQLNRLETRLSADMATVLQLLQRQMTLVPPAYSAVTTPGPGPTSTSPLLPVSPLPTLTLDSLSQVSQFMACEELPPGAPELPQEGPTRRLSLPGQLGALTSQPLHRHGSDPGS
Put plainly: hERG inhibition test, whole-cell patch clamp in HEK293 cells stably expressing the hERG ion channel. Type of data set: cell-based. As to conditions: human, HEK293 cells stably expressing the hERG ion channel. On the procedure:
(§1) An hERG current was recorded by the whole-cell patch clamp technique. A suspension of HEK293 cells stably expressing the hERG ion channel was added to a 35 mm culture dish, and the culture dish was put on a stage of an inverted microscope. […] The pulse program was repeated every 15 seconds throughout the whole test. After the current became stable, the administration method of continuous extracellular perfusion from low concentration to high concentration was used, and the perfusion started from low concentration and continued until the drug effect was stable, and then the perfusion of the next concentration was performed.
(§2) After the test, stimulus release and signal acquisition were carried out through PatchMaster software. Graphpad Prism 8.0 was used for further data analysis and curve fitting. Effects of each compound at different concentrations were represented with an inhibition rate of the tail current. Inhibition rate=(peak tail current before administration—peak tail current after administration)/peak tail current before administration x 100%. Half-maximal inhibitory concentration IC50 of the test samples was obtained by the fitting analysis with Hill equation.
(The hERG channel carries a current that helps repolarise heart muscle cells.)

For a further data set, the target named is T2, hERG ion channel (Homo sapiens, UniProt Q12809).
T2 construct: expressed in transfected cells; host or cells: HEK293 cells stably expressing hERG
T2 sequence (Q12809 whole entry): as above
Described as above. The conditions noted are these: tail current, Hill equation fit. In kind it is cell-based. Here is the method:
as §1, §2

Where [1] appears, read: read-out: Average hERG inhibition rate.
The mark [2] stands for this setting: read-out: hERG Inhibition rate, Cell 1.
[3] abbreviates: read-out: hERG Inhibition rate, Cell 2.

Like-named read-outs stand apart in the source and are kept apart here.

Take `CCNC(=O)c1cc2c(-c3sc(C(C)(C)O)cc3N3CCc4ccccc43)cn(C)c(=O)c2[nH]1` [Compound 1, N-ethyl-4-(5-(2-hydroxypropyl-2-yl)-3-(indolin-1-yl)thiophen-2-yl)-6-methyl-7-oxo-6,7-dihydro-1H-pyrrolo[2,3-c]pyridine-2-carboxamide]: the IC50 in the data set with MV4-11 cell turned out to be 1.98 nM. Further, the “Relative tumor proliferation rate T/C” value in the data set on MV4-11 xenograft tumor is reported as 33.15%. In addition, on hERG (setting [1]), the inhibition at 0.37 µM was 3.89%, the inhibition at 1.11 µM is 4.35%, the inhibition at 3.33 µM was found to be 10.1% and the inhibition at 10 µM came out at 21.6%. Also, the inhibition at 30 µM on hERG (setting [1]) is 56.3%. Also, at hERG (setting [2]), the inhibition at 0.37 µM stood at 0.98%, the inhibition at 1.11 µM is -0.28%, the inhibition at 3.33 µM came to 2.97% and the inhibition at 10 µM amounted to 14.6%. The inhibition at 30 µM on hERG (setting [2]) was 54.3%. On hERG (setting [3]), the inhibition at 0.37 µM worked out at 6.79%, the inhibition at 1.11 µM is 8.97%, the inhibition at 3.33 µM stood at 17.3% and the inhibition at 10 µM was found to be 28.6%. Besides, the inhibition at 30 µM at hERG (setting [3]) turned out to be 58.3%. The same compound returned an IC50 against hERG ion channel of 26.8 µM.

As usually defined, the IC50 is the concentration that gives 50% inhibition. In general, inhibition refers to the drop in the measured response relative to a control, in per cent.
